Measurements from patent US9738634B2, “Heterocyclic amide compound and herbicide” (SYNGENTA PARTICIPATIONS AG, priority 2013, dated 2017).

Key:
Assay type in all cases: in vivo
barnyard grass [1] = assay: Test Example 1: weedkilling efficacy, preemergent weed treatment in the submerged state; A: barnyard grass
Excerpt: (§1) Weedkilling efficacy test on preemergent weed treatment in the submerged state
(§2) Alluvial soil was introduced into 1/10,000 Are Wagner pots, and 4 cm depth submerged conditions were created by addition of water and mixing. Seeds of barnyard grass, bulrush and oval-leafed pondweed were mixed and sown into the aforesaid cups, then 2.5 leaf stage rice seedlings were transplanted. On the sowing day, emulsions of compounds of the present invention prepared according to compounding example 2 were diluted with water to give the specified dosages and applied onto the water surface. The plants were grown after placing the cups in a greenhouse at 25 to 30° C. 3 weeks after the pesticide treatment the effect on each type of plant was investigated on the basis of the following assessment criteria.
(§3) A: barnyard grass, B: bulrush, C: oval-leafed pondweed, D: crabgrass, E: green foxtail, F: barnyard grass, G: wild oat, H: black-grass, I: Italian ryegrass, J: common wind-grass, K: Indian mallow, L: redroot pigweed, M: fig-leafed goosefoot, N: chickweed, O: catchweed, p: birds-eye speedwell, a: transplanted rice, b: directly sown rice, c: corn, d: soybean, e: wheat, f: beet, g: rapeseed
(§4) Further, pesticide dosage (g/ha) indicates the concentration regulated such that treatment was with only the stated number of grams (g), when calculated per hectare (ha).

bulrush [2] = assay: Test Example 1: weedkilling efficacy, preemergent weed treatment in the submerged state; B: bulrush
Excerpt: as §1, §2, §3, §4

oval-leafed pondweed [3] = assay: Test Example 1: weedkilling efficacy, preemergent weed treatment in the submerged state; C: oval-leafed pondweed
Excerpt: as §1, §2, §3, §4

transplanted rice = assay: Test Example 1: preemergent weed treatment in the submerged state, effect on crop; a: transplanted rice
Excerpt: as §1, §2, §3, §4

barnyard grass [4] = assay: Test Example 2: weedkilling efficacy, growth period weed treatment in the submerged state; A: barnyard grass
Procedure: (§5) Weedkilling efficacy test on growth period weed treatment in the submerged state
as §2, with “and the plants were grown by placing in a greenhouse at 25 to 30° C. When the barnyard grass, bulrush and oval-leafed pondweed had reached the 1-2” for “then 2.5”, “stage,” for “stage rice seedlings were transplanted. On the sowing day,”, “surface.” for “surface. The plants were grown after placing the cups in a greenhouse at 25 to 30° C.”, “the” for “the following”, “criteria of test example 1.” for “criteria.”
as §3, §4

bulrush [5] = assay: Test Example 2: weedkilling efficacy, growth period weed treatment in the submerged state; B: bulrush
Procedure: as §5
as §2, with “and the plants were grown by placing in a greenhouse at 25 to 30° C. When the barnyard grass, bulrush and oval-leafed pondweed had reached the 1-2” for “then 2.5”, “stage,” for “stage rice seedlings were transplanted. On the sowing day,”, “surface.” for “surface. The plants were grown after placing the cups in a greenhouse at 25 to 30° C.”, “the” for “the following”, “criteria of test example 1.” for “criteria.”
as §3, §4

oval-leafed pondweed [6] = assay: Test Example 2: weedkilling efficacy, growth period weed treatment in the submerged state; C: oval-leafed pondweed
Procedure: as §5
as §2, with “and the plants were grown by placing in a greenhouse at 25 to 30° C. When the barnyard grass, bulrush and oval-leafed pondweed had reached the 1-2” for “then 2.5”, “stage,” for “stage rice seedlings were transplanted. On the sowing day,”, “surface.” for “surface. The plants were grown after placing the cups in a greenhouse at 25 to 30° C.”, “the” for “the following”, “criteria of test example 1.” for “criteria.”
as §3, §4

SMILES	A: barnyard grass, weed kill grade (barnyard grass [1]; treatment dosage 252 g/ha)	B: bulrush, weed kill grade (bulrush [2]; treatment dosage 252 g/ha)	C: oval-leafed pondweed, weed kill grade (oval-leafed pondweed [3]; treatment dosage 252 g/ha)	a: transplanted rice, effect on crop grade (transplanted rice; treatment dosage 252 g/ha)	A (barnyard grass) weedkilling efficacy grade (barnyard grass [4]; treatment dosage 252 g/ha)	B (bulrush) weedkilling efficacy grade (bulrush [5]; treatment dosage 252 g/ha)	C (oval-leafed pondweed) weedkilling efficacy grade (oval-leafed pondweed [6]; treatment dosage 252 g/ha)	A: barnyard grass, weed kill grade (barnyard grass [1]; treatment dosage 320 g/ha)	B: bulrush, weed kill grade (bulrush [2]; treatment dosage 320 g/ha)	C: oval-leafed pondweed, weed kill grade (oval-leafed pondweed [3]; treatment dosage 320 g/ha)	a: transplanted rice, effect on crop grade (transplanted rice; treatment dosage 320 g/ha)	A (barnyard grass) weedkilling efficacy grade (barnyard grass [4]; treatment dosage 320 g/ha)	B (bulrush) weedkilling efficacy grade (bulrush [5]; treatment dosage 320 g/ha)	C (oval-leafed pondweed) weedkilling efficacy grade (oval-leafed pondweed [6]; treatment dosage 320 g/ha)	also measured
CC(C)(C(=O)Nc1nc(Cl)cc(Cl)n1)N1COCN(c2ccccc2)C1=O [A-1-19]	2 (weed kill ratio 20% or more, less than 40%)	3 (weed kill ratio 40% or more, less than 70%)	2 (weed kill ratio 20% or more, less than 40%)	0 (weed kill ratio 5% or less (practically no effect))	3 (weed kill ratio 40% or more, less than 70%)	2 (weed kill ratio 20% or more, less than 40%)	2 (weed kill ratio 20% or more, less than 40%)								
CC(C)(C(=O)Nc1cc(-c2ccccc2)ccn1)N1COCN(c2ccccc2)C1=O [A-2-49]	5 (weed kill ratio 90% or more, (practically complete withering))	5 (weed kill ratio 90% or more, (practically complete withering))	5 (weed kill ratio 90% or more, (practically complete withering))	1 (weed kill ratio 5% or more, less than 20%)	4 (weed kill ratio 70% or more, less than 90%)	4 (weed kill ratio 70% or more, less than 90%)	4 (weed kill ratio 70% or more, less than 90%)								
CC(C(=O)Nc1cc(Cl)cc(Cl)n1)N1COCN(c2ccccc2)C1=O (racemic) [A-7-01]															A: barnyard grass, weed kill grade (barnyard grass [1]; treatment dosage 1000 g/ha): 5 (weed kill ratio 90% or more, (practically complete withering)); B: bulrush, weed kill grade (bulrush [2]; treatment dosage 1000 g/ha): 5 (weed kill ratio 90% or more, (practically complete withering)); C: oval-leafed pondweed, weed kill grade (oval-leafed pondweed [3]; treatment dosage 1000 g/ha): 4 (weed kill ratio 70% or more, less than 90%); a: transplanted rice, effect on crop grade (transplanted rice; treatment dosage 1000 g/ha): 0 (weed kill ratio 5% or less (practically no effect)); A (barnyard grass) weedkilling efficacy grade (barnyard grass [4]; treatment dosage 1000 g/ha): 3 (weed kill ratio 40% or more, less than 70%); B (bulrush) weedkilling efficacy grade (bulrush [5]; treatment dosage 1000 g/ha): 5 (weed kill ratio 90% or more, (practically complete withering)); C (oval-leafed pondweed) weedkilling efficacy grade (oval-leafed pondweed [6]; treatment dosage 1000 g/ha): 1 (weed kill ratio 5% or more, less than 20%)
CC(C)(C(=O)Nc1cncc(Cl)c1)N1COCN(c2ccccc2)C1=O [A-3-02]	5 (weed kill ratio 90% or more, (practically complete withering))	5 (weed kill ratio 90% or more, (practically complete withering))	5 (weed kill ratio 90% or more, (practically complete withering))	2 (weed kill ratio 20% or more, less than 40%)	2 (weed kill ratio 20% or more, less than 40%)	5 (weed kill ratio 90% or more, (practically complete withering))	3 (weed kill ratio 40% or more, less than 70%)								
CC(C)(C(=O)Nc1cc(C(F)(F)F)ccn1)N1COCN(c2ccc(Cl)c(Cl)c2)C1=O [A-6-03]								3 (weed kill ratio 40% or more, less than 70%)	5 (weed kill ratio 90% or more, (practically complete withering))	0 (weed kill ratio 5% or less (practically no effect))	0 (weed kill ratio 5% or less (practically no effect))	0 (weed kill ratio 5% or less (practically no effect))	2 (weed kill ratio 20% or more, less than 40%)	0 (weed kill ratio 5% or less (practically no effect))	
Cc1ccc(N2COCN(C(C)(C)C(=O)Nc3cc(Cl)cc(Cl)n3)C2=O)cc1 [A-6-12]								5 (weed kill ratio 90% or more, (practically complete withering))	5 (weed kill ratio 90% or more, (practically complete withering))	5 (weed kill ratio 90% or more, (practically complete withering))	2 (weed kill ratio 20% or more, less than 40%)	4 (weed kill ratio 70% or more, less than 90%)	5 (weed kill ratio 90% or more, (practically complete withering))	5 (weed kill ratio 90% or more, (practically complete withering))	
CC(C)(C(=O)Nc1cc(Cl)cnc1Br)N1COCN(c2ccccc2)C1=O [A-3-08]	5 (weed kill ratio 90% or more, (practically complete withering))	5 (weed kill ratio 90% or more, (practically complete withering))	4 (weed kill ratio 70% or more, less than 90%)	0 (weed kill ratio 5% or less (practically no effect))	2 (weed kill ratio 20% or more, less than 40%)	3 (weed kill ratio 40% or more, less than 70%)	2 (weed kill ratio 20% or more, less than 40%)								
CC(C)(C(=O)Nc1nnc(C(F)(F)F)s1)N1COCN(c2ccccc2)C1=O [A-1-14]								4 (weed kill ratio 70% or more, less than 90%)	5 (weed kill ratio 90% or more, (practically complete withering))	3 (weed kill ratio 40% or more, less than 70%)	1 (weed kill ratio 5% or more, less than 20%)	2 (weed kill ratio 20% or more, less than 40%)	5 (weed kill ratio 90% or more, (practically complete withering))	2 (weed kill ratio 20% or more, less than 40%)	
CC(C)(C(=O)Nc1cncc(F)c1)N1COCN(c2ccccc2)C1=O [A-3-01]	5 (weed kill ratio 90% or more, (practically complete withering))	5 (weed kill ratio 90% or more, (practically complete withering))	4 (weed kill ratio 70% or more, less than 90%)	1 (weed kill ratio 5% or more, less than 20%)	1 (weed kill ratio 5% or more, less than 20%)	5 (weed kill ratio 90% or more, (practically complete withering))	2 (weed kill ratio 20% or more, less than 40%)								
Cc1ccc(N2COCN(C(C)(C)C(=O)Nc3cc(F)cc(F)n3)C2=O)cc1 [A-6-10]								5 (weed kill ratio 90% or more, (practically complete withering))	5 (weed kill ratio 90% or more, (practically complete withering))	5 (weed kill ratio 90% or more, (practically complete withering))	1 (weed kill ratio 5% or more, less than 20%)	4 (weed kill ratio 70% or more, less than 90%)	5 (weed kill ratio 90% or more, (practically complete withering))	5 (weed kill ratio 90% or more, (practically complete withering))	
CC(C)(C(=O)Nc1ccnc(Br)c1)N1COCN(c2ccccc2)C1=O [A-4-03]	5 (weed kill ratio 90% or more, (practically complete withering))	5 (weed kill ratio 90% or more, (practically complete withering))	5 (weed kill ratio 90% or more, (practically complete withering))	1 (weed kill ratio 5% or more, less than 20%)	2 (weed kill ratio 20% or more, less than 40%)	5 (weed kill ratio 90% or more, (practically complete withering))	4 (weed kill ratio 70% or more, less than 90%)								
